Measured values taken from the supplement of paper PMC11061612.

How the values were obtained:
Assay in all cases: combination Emax (second highest fraction inhibited in the dose matrix, 72 h); higher = more inhibition; extreme values may be limits of the assay
[1] = tested on: PANC-02-03 (Pancreatic Carcinoma)
Outline: (§1)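 Bliss excess equals the observed combination effect minus the expected value EA + EB − EA·EB, where EA and EB are the effects of each agent alone. Combination Emax is the second-highest inhibition within the matrix. Inhibition was scaled from CellTiter-Glo 2.0 luminescence, with 0 set by vehicle wells and 1 by blank wells, after 72 hours of two-drug dosing of cells plated in 1536-well plates.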

[2] = tested on: EB-3 (Burkitt's Lymphoma)
Outline: as §1

[3] = tested on: AsPC-1 (Pancreatic Carcinoma)
Outline: as §1

ES-2 (Ovarian Carcinoma) = tested on: ES-2 (Ovarian Carcinoma)
Outline: as §1

[4] = tested on: NCI-H1563 (Lung Adenocarcinoma)
Outline: as §1

[5] = tested on: SK-MM-2 (Plasma Cell Myeloma)
Outline: as §1

KYM-1 (Rhabdomyosarcoma) = tested on: KYM-1 (Rhabdomyosarcoma)
Outline: as §1

HuO-3N1 (Osteosarcoma) = tested on: HuO-3N1 (Osteosarcoma)
Outline: as §1

[6] = tested on: SW684 (Other Solid Carcinomas)
Outline: as §1

[7] = tested on: OVTOKO (Ovarian Carcinoma)
Outline: as §1

[8] = tested on: NCI-H1623 (Lung Adenocarcinoma)
Outline: as §1

[9] = tested on: RPMI-8866 (Chronic Myelogenous Leukemia)
Outline: as §1

[10] = tested on: NCI-H810 (Non-Small Cell Lung Carcinoma)
Outline: as §1

[11] = tested on: RERF-LC-KJ (Lung Adenocarcinoma)
Outline: as §1

[12] = tested on: COLO-684 (Endometrial Carcinoma)
Outline: as §1

[13] = tested on: SJRH30 (Rhabdomyosarcoma)
Outline: as §1

[14] = tested on: KYSE-70 (Esophageal Squamous Cell Carcinoma)
Outline: as §1

[15] = tested on: SNU-175 (Colorectal Carcinoma)
Outline: as §1

[16] = tested on: HSC-3 (Oral Cavity Carcinoma)
Outline: as §1

Structure (SMILES) | combination Emax [1] | combination Emax [2] | combination Emax [3] | combination Emax (ES-2 (Ovarian Carcinoma)) | combination Emax [4] | combination Emax [5] | combination Emax (KYM-1 (Rhabdomyosarcoma)) | combination Emax (HuO-3N1 (Osteosarcoma)) | combination Emax [6] | combination Emax [7] | combination Emax [8] | combination Emax [9] | combination Emax [10] | combination Emax [11] | combination Emax [12] | combination Emax [13] | combination Emax [14] | combination Emax [15] | combination Emax [16]
CN(C)CCCOc1ccc(-c2ccc3ncc4c(c3c2)n(C2CCOCC2)c(=O)n4C)cn1 [AZD0156] + O=C(c1cc(Cc2n[nH]c(=O)c3ccccc23)ccc1F)N1CCN(C(=O)C2CC2)CC1 [Olaparib] (first compound max 3 µM, partner max 3 µM) | 0.248 | 0.568 | 0.297 | 0.448 | 0.246 | 0.348 | 0.583 | 0.289 | 0.141 | 0.33 | 0.333 | 0.285 | 0.306 | 0.368 | 0.307 | 0.48 | 0.123 | 0.553 | 0.467
C=CCn1c(=O)c2cnc(Nc3ccc(N4CCN(C)CC4)cc3)nc2n1-c1cccc(C(C)(C)O)n1 [AZD1775] + C1CN(CCC1(C(=O)N[C@@H](CCO)C2=CC=C(C=C2)Cl)N)C3=NC=NC4=C3C=CN4 [Capivasertib] (first compound max 3 µM, partner max 3 µM) | 0.605 | 0.829 | 0.505 | 0.817 | 0.459 | 0.501 | 0.767 | 0.633 | 0.467 | 0.594 | 0.597 | 0.964 | 0.873 | 0.548 | 0.841 | 0.955 | 0.534 | 0.917 | 0.773
COc1nnc2ccc(N3CCC(c4ccc(OCCN5CCN(C)C(=O)[C@H]5C)cc4)CC3)nn12 [AZD5153] + C=CCn1c(=O)c2cnc(Nc3ccc(N4CCN(C)CC4)cc3)nc2n1-c1cccc(C(C)(C)O)n1 [AZD1775] (first compound max 1 µM, partner max 1 µM) | 0.645 | 0.814 | 0.381 | 0.747 | 0.564 | 0.878 | 0.901 | 0.466 | 0.452 | 0.622 | 0.59 | 0.952 | 0.8 | 0.957 | 0.744 | 0.942 | 0.47 | 0.813 | 0.795
COc1nnc2ccc(N3CCC(c4ccc(OCCN5CCN(C)C(=O)[C@H]5C)cc4)CC3)nn12 [AZD5153] + CC1(C)CCC(CN2CCN(c3ccc(C(=O)NS(=O)(=O)c4ccc(NCC5CCOCC5)c([N+](=O)[O-])c4)c(Oc4cnc5[nH]ccc5c4)c3)CC2)=C(c2ccc(Cl)cc2)C1 [Venetoclax] (first compound max 1 µM, 7x7, partner max 1 µM) | 0.582 | 0.806 | 0.176 | 0.546 | 0.491 | 1 | 0.859 | 0.337 | 0.531 | 0.507 | 0.419 | 0.814 | 0.583 | 0.971 | 0.528 | 0.383 | 0.409 | 0.665 | 0.69
COc1nnc2ccc(N3CCC(c4ccc(OCCN5CCN(C)C(=O)[C@H]5C)cc4)CC3)nn12 [AZD5153] + CCN(CCO)CCCOc1ccc2c(Nc3cc(CC(=O)Nc4cccc(F)c4)[nH]n3)ncnc2c1 [AZD2811] (first compound max 1 µM, 7x7, partner max 1 µM) | 0.592 | 0.757 | 0.258 | 0.618 | 0.488 | 0.908 | 0.85 | 0.421 | 0.502 | 0.539 | 0.488 | 0.872 | 0.694 | 0.971 | 0.553 | 0.799 | 0.458 | 0.83 | 0.773
COc1nnc2ccc(N3CCC(c4ccc(OCCN5CCN(C)C(=O)[C@H]5C)cc4)CC3)nn12 [AZD5153] + CN(CC[C@H](CSC1=CC=CC=C1)NC2=C(C=C(C=C2)S(=O)(=O)NC(=O)C3=CC=C(C=C3)N4CCC(CC4)[C@H](C5=CC=CC=C5C6=CC=C(C=C6)Cl)O)S(=O)(=O)C(F)(F)F)CCO [AZD4320] (first compound max 1 µM, 7x7, partner max 1 µM) |  |  | 0.559 | 0.745 | 0.536 |  |  | 0.466 |  | 0.495 | 0.46 | 0.87 |  | 0.979 |  | 0.706 |  | 0.759 | 0.712
COc1nnc2ccc(N3CCC(c4ccc(OCCN5CCN(C)C(=O)[C@H]5C)cc4)CC3)nn12 [AZD5153] + C[C@@H]1COCCN1C2=NC(=NC(=C2)C3(CC3)[S@](=N)(=O)C)C4=C5C=CNC5=NC=C4 [AZD6738] (first compound max 1 µM, 7x7, partner max 10 µM) | 0.727 | 0.833 | 0.367 | 0.877 | 0.664 | 0.917 | 0.962 | 0.427 | 0.464 | 0.661 | 0.672 | 0.958 | 0.795 | 0.968 | 0.797 | 0.945 | 0.424 | 0.883 | 0.845
COc1nnc2ccc(N3CCC(c4ccc(OCCN5CCN(C)C(=O)[C@H]5C)cc4)CC3)nn12 [AZD5153] + Cc1c2c(nn1C)CSCc1cc(n(C)n1)CSc1cc(c3ccccc3c1)OCCCc1c(C(=O)O)n(C)c3c-2c(Cl)ccc13 [AZD5991] (first compound max 1 µM, 7x7, partner max 1 µM) | 0.595 | 0.822 | 0.258 | 0.654 | 0.835 | 0.93 | 1 | 0.628 | 0.46 | 0.531 | 1 | 0.857 | 0.995 | 0.979 | 0.67 | 0.97 | 0.355 | 0.931 | 0.778
COc1nnc2ccc(N3CCC(c4ccc(OCCN5CCN(C)C(=O)[C@H]5C)cc4)CC3)nn12 [AZD5153] + Cn1cnc2c(F)c(Nc3ccc(Br)cc3Cl)c(C(=O)NOCCO)cc21 [Selumetinib] (first compound max 1 µM, 7x7, partner max 10 µM) | 0.866 | 0.706 | 0.595 | 0.705 | 0.465 | 0.963 | 0.972 | 0.356 | 0.531 | 0.471 | 0.706 | 0.805 | 0.587 | 0.868 | 0.549 | 0.486 | 0.424 | 0.742 | 0.812
NC1(C(=O)N[C@@H](CCO)c2ccc(Cl)cc2)CCN(c2ncnc3[nH]ccc23)CC1 [Capivasertib] + CC(=O)c1c(C)c2cnc(Nc3ccc(N4CCNCC4)cn3)nc2n(C2CCCC2)c1=O [Palbociclib] (first compound max 10 µM, 7x7, partner max 10 µM) | 0.202 | 0.428 | 0.396 | 0.72 | 0.47 | 0.409 | 0.85 | 0.432 | 0.54 | 0.572 | 0.506 | 0.75 | 0.141 | 0.436 | 0.632 | 0.794 | 0.377 | 0.634 | 0.78
NC1(C(=O)N[C@@H](CCO)c2ccc(Cl)cc2)CCN(c2ncnc3[nH]ccc23)CC1 [Capivasertib] + CC(C)n1c(=O)n(C)c2cnc3cc(F)c(-c4ccc(OCCCN5CCCCC5)nc4)cc3c21 [AZD1390] (first compound max 10 µM, 7x7, partner max 0.3 µM) | 0.192 | 0.522 | 0.208 | 0.257 | 0.452 | 0.243 | 0.52 | 0.46 | 0.536 | 0.516 | 0.477 | 0.402 | 0.166 | 0.449 | 0.56 | 0.701 | 0.259 | 0.269 | 0.608
CC(=O)c1c(C)c2cnc(Nc3ccc(N4CCNCC4)cn3)nc2n(C2CCCC2)c1=O [Palbociclib] + CN(CC[C@H](CSC1=CC=CC=C1)NC2=C(C=C(C=C2)S(=O)(=O)NC(=O)C3=CC=C(C=C3)N4CCC(CC4)[C@H](C5=CC=CC=C5C6=CC=C(C=C6)Cl)O)S(=O)(=O)C(F)(F)F)CCO [AZD4320] (first compound max 10 µM, 7x7, partner max 1 µM) |  |  | 0.488 | 0.621 | 0.348 |  |  | 0.494 |  | 0.53 | 0.387 | 0.927 |  | 0.141 |  | 0.37 |  | 0.877 | 0.613
C[C@@H](c1ccc2nccn2c1)n1nnc2ncc(-c3cnn(C)c3)nc21 [Savolitinib] + CN(CC[C@H](CSC1=CC=CC=C1)NC2=C(C=C(C=C2)S(=O)(=O)NC(=O)C3=CC=C(C=C3)N4CCC(CC4)[C@H](C5=CC=CC=C5C6=CC=C(C=C6)Cl)O)S(=O)(=O)C(F)(F)F)CCO [AZD4320] (first compound max 1 µM, 7x7, partner max 1 µM) |  |  | 0.572 | 0.236 | 0.213 |  |  | 0.201 |  | 0.274 | 0.255 | 0.366 |  | 0.206 |  | 0.265 |  | 0.349 | 0.185
